Measured values from US20240083872A1, “CYCLIC AMINE DERIVATIVES HAVING SEROTONIN RECEPTOR BINDING ACTIVITY” (Shionogi & Co., Ltd., priority 2020, published 2024).
Where two headings read alike, the source gives them in different places.

Key:
[1] = target: human recombinant 5-HT2A receptor (Homo sapiens (Human), UniProt P28223); test: 5-HT2A receptor binding inhibition test ([3H]-Ketanserin); conditions: Jump-In HEK cell membrane
Experimental: Test Example 1: 5-HT2A Receptor Binding Inhibition Test
(§1) (Each Experimental Condition)
Cell membrane: Jump-In HEK cell membrane (expressing human recombinant 5-HT2A receptor)
(§2) Assay buffer: Tris-HCl 50 mmol/L (pH 7.4) containing NaCl 120 mmol/L, MgCl2.6H2O 1 mmol/L, KCl 5 mmol/L, 0.1% BSA, and CaCl2 2 mmol/L
Radioactive ligand: [^3H]-Ketanserin around Kd value calculated by the following method
(§3) Non-specific ligand: Serotonin HCl
(§4) The Kd value was calculated when the lot of cell membrane was changed. In advance, 0.5 μL of a 1 mmol/L compound for non-specific binding calculation dissolved in DMSO or DMSO was dispensed into a microplate, and the cell membrane was diluted with an Assay buffer. The radioactive ligand solution was serially diluted and the count was confirmed with a liquid scintillator. Assay buffer containing diluted cell membrane was dispensed into a microplate at 50 μL/well. Then, the radioactive ligand solution was dispensed into a microplate at 50 μL/well, and the plate was sealed. It was allowed to stand at room temperature (25° C.) for 1.5 hours. During this period, 50 mmol/L Tris-HCl (pH 7.4) was dispensed into a GF/B UniFilter plate at 50 μL/well and allowed to stand at 4° C. for 1 hour or longer. After that, filtration was performed with Cell harvester (PerkinElmer). The radioactive ligand solution was dispensed into an empty well of the GF/B UniFilter plate at 10 μL/well. After the GF/B UniFilter plate was dried at room temperature, MicroScinti 20 was dispensed into the GF/B UniFilter plate at 50 μL/well, and the plate was sealed. The GF/B UniFilter plate was allowed to stand overnight at room temperature. The radioactivity of [^3H]-Ketanserin bound to the 5-HT2A receptor was measured using Microbeta2 (PerkinElmer) at a measurement time of 1 min/well. The Saturation curve was drawn from the measured value, and the Kd value was calculated from the slope of the Scatchard Plot.
(§5) (Binding Test of the Compound According to the Present Invention)
(§6) In advance, 0.5 μL of the compound solution dissolved in DMSO was dispensed into a microplate, and the cell membrane and the hot ligand were diluted with Assay buffer, respectively. Then, the Assay buffer containing the diluted cell membrane was dispensed into a microplate at 50 μL/well. Then, the radioactive ligand solution was dispensed into a microplate at 50 μL/well, and the plate was sealed. Then, it was allowed to stand at room temperature (25° C.) for 1.5 hours. During this period, 50 mmol/L Tris-HCl (pH 7.4) was dispensed into a GF/B UniFilter plate at 50 μL/well and allowed to stand at 4° C. for 1 hour or longer. After that, filtration was performed with Cell harvester (PerkinElmer). After the GF/B UniFilter plate was dried at room temperature, MicroScinti 20 was dispensed into the GF/B UniFilter plate at 50 μL/well, and the plate was sealed. The GF/B UniFilter plate was allowed to stand overnight at room temperature. The radioactivity of [^3H]-Ketanserin bound to the 5-HT2A receptor was measured using Microbeta2 (PerkinElmer) at a measurement time of 1 min/well. The non-specific binding was calculated from the radioactivity of [^3H]-Ketanserin in the presence of […] Serotonin HCl with the unlabeled ligand, and the total binding was calculated from the radioactivity of [^3H]-Ketanserin in the absence of the compound according to the present invention (Vehicle). Finally, the Ki value was calculated from the dose-response curve.
(§7) (The binding activity of the compound according to the present invention was calculated from the following binding inhibition rate (%).)
(§8) Inhibition rate (%)=[1−(c−a)/(b−a)]×100 • a; mean cpm of non-specific binding • b; mean cpm of total binding • c; cpm in the presence of the test compound

[2] = target: human recombinant 5-HT2C receptor (Homo sapiens (Human), UniProt P28335); test: 5-HT2C receptor binding inhibition test ([3H]-Mesulergine); conditions: Jump-In HEK cell membrane, [3H]-Mesulergine
Chain of human recombinant 5-HT2C receptor (P28335 33-458): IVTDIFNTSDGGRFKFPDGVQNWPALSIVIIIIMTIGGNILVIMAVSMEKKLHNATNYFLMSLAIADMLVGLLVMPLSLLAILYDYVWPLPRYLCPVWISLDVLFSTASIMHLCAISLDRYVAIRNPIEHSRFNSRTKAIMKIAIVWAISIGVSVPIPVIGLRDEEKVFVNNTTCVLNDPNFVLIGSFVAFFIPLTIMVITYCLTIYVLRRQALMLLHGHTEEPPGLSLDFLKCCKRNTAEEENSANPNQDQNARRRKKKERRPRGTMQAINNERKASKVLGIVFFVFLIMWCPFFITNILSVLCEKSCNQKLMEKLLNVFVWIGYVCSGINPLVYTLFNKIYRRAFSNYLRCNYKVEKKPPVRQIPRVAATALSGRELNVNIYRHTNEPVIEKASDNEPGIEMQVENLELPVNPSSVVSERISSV
Experimental: as §1
Cell membrane: Jump-In HEK cell membrane (expressing human recombinant 5-HT2C receptor)
as §2
Radioactive ligand: [^3H]-Mesulergine around Kd value calculated by the following method
as §3
as §4, with “[…]” for “4°”, “The radioactivity of [^3H]-Ketanserin bound to the 5-HT2A receptor was measured using Microbeta2 (PerkinElmer) at a measurement time of 1 min/well.” left out
as §5
as §6, with “37° C.” for “room temperature (25° C.)”, “2” for “1.5”, “The radioactivity of [^3H]-Ketanserin bound to the 5-HT2A receptor was measured using Microbeta2 (PerkinElmer) at a measurement time of 1 min/well.” left out, “[^3H]-Mesulergine” for “[^3H]-Ketanserin”
as §7, §8

[3] = read-out: human serotonin 5-HT2A receptor binding activity, Ki value
[4] = read-out: human serotonin 5-HT2C receptor binding inhibitory activity, Ki value

Chain of human recombinant 5-HT2A receptor (P28223 whole entry): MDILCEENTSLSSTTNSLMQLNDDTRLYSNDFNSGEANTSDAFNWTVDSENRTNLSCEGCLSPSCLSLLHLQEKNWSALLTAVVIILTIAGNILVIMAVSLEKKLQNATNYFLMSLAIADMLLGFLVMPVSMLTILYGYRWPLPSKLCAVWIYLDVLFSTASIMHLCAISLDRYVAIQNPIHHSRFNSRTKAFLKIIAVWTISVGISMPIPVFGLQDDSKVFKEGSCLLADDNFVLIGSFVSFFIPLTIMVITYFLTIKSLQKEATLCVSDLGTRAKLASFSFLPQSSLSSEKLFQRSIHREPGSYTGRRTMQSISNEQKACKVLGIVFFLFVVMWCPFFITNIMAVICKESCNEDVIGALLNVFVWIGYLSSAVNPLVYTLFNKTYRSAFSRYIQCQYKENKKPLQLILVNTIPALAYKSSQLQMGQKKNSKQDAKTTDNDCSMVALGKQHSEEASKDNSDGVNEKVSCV

| SMILES | Ki ([1]; read-out: h-5-HT2A Ki) [nM] | Ki ([2]; read-out: h-5-HT2C Ki) [nM] | Ki [1, 3] [nM] | Ki [2, 4] [nM] |
| --- | --- | --- | --- | --- |
| Cc1ccc(CN(Cc2ccc(OCC(C)C)cc2)C(=O)NC2CCN(C)CC2)s1 [Compound I-008] | < 10 | < 10 |  |  |
| CN1CCC(NC(=O)N(Cc2ccc(OC(F)(F)F)cc2)Cc2ccn(C)n2)CC1 [Compound I-046] |  |  | 3.09 | 14.5 |
| CN1CCC(NC(=O)N(Cc2coc(C3CC3)n2)Cc2ccc(OCC(F)(F)F)cc2F)CC1 [Compound I-112] | < 10 | < 10 |  |  |
| CN1CCC(NC(=O)N(Cc2ccc(OCC(F)(F)F)cc2)Cc2coc(C3CC3)n2)CC1 [Compound I-111] | < 10 | < 10 |  |  |
| CC(C)COc1ccc(CN(Cc2ccn(C)n2)C(=O)NC2CCCN(C)CC2)cc1 (racemic) [Compound I-004] |  |  | 4.51 | 11.5 |
| CN1CCC(NC(=O)N(Cc2ccc(Oc3ccccc3)cc2)Cc2ccn(C)n2)CC1 [Compound I-003] |  |  | 9.93 | 8.39 |
| CCCCOc1ccc(CN(Cc2coc(CF)n2)C(=O)NC2CCN(C)CC2)cc1 [Compound I-119] | < 10 | < 10 |  |  |
| CC(C)COc1ccc(CN(Cc2ccn(C)n2)C(=O)NC2CCNCC2)cc1 [Compound I-079] | < 10 | < 10 |  |  |
| Cc1ccc(CN(Cc2ccc(OCC(C)C)cc2)C(=O)NC2CCN(C)CC2)nc1 [Compound I-031] |  |  | 0.709 | 1.89 |
| Cc1nc(CN(Cc2ccc(OCC(C)C)cc2)C(=O)N[C@H]2CCNC[C@H]2F)co1 [Compound I-080] | < 10 | < 10 |  |  |
| CCCCOc1ccc(CN(Cc2coc(C)n2)C(=O)CN2CCN(C)CC2)cc1F [Compound I-126] |  |  | 1.24 | 6.25 |
| CC(C)COc1ccc(CN(Cc2cnn(C)n2)C(=O)NC2CCN(C)CC2)cc1F [Compound I-116] | < 10 | < 10 |  |  |
| CCCc1ccc(CN(Cc2coc(C)n2)C(=O)NC2CCN(C)CC2)cc1F [Compound I-107] |  |  | 0.549 | 0.34 |
| Cc1nc(CN(Cc2ccc(CCC(F)(F)F)cc2F)C(=O)NC2CCN(C)CC2)co1 [Compound I-104] |  |  | 0.952 | 0.484 |
| COc1ccc(CN(Cc2ccn(C)n2)C(=O)NC2CCN(C)CC2)cc1C [Compound I-010] | 10 to 100 | 100 to 5000 |  |  |

Second part, led by results:

| Ki ([1]; read-out: h-5-HT2A Ki) [nM] | Ki ([2]; read-out: h-5-HT2C Ki) [nM] | SMILES | Ki [1, 3] [nM] | Ki [2, 4] [nM] |
| --- | --- | --- | --- | --- |
| < 10 | 10 to 100 | COc1ccc(CN(Cc2ccn(C)n2)C(=O)NC2CCN(C)CC2)cc1F [Compound I-014] |  |  |
| < 10 | < 10 | CC(C)COc1ccc(CN(Cc2ccn(C)n2)C(=O)NC2CCN(C)CC23CC3)cc1 (racemic) [Compound I-045] |  |  |
| < 10 | 10 to 100 | CC(C)COc1ccc(CN(Cc2ccn(C)c2)C(=O)NC2CCN(C)CC2)cc1 [Compound I-040] |  |  |
| 10 to 100 | 100 to 5000 | CC(C)COc1ccc(CN(Cc2ccn(C)n2)C(=O)CN2CCN(C)CC2)cc1 [Compound I-036] |  |  |
| < 10 | < 10 | CC(C)COc1ccc(CN(Cc2ccco2)C(=O)NC2CCN(C)CC2)cc1 [Compound I-024] |  |  |
| 10 to 100 | 10 to 100 | CC(C)COc1ccc(CN(Cc2cnn(C)c2)C(=O)NC2CCN(C)CC2)cc1 [Compound I-060] |  |  |
| 10 to 100 | 10 to 100 | CC(C)COc1ccc(CN(Cc2cnccn2)C(=O)NC2CCN(C)CC2)cc1 [Compound I-020] |  |  |
| 10 to 100 | 100 to 5000 | CC(C)COc1ccc(CN(Cc2ccncn2)C(=O)NC2CCN(C)CC2)cc1 [Compound I-019] |  |  |
| 10 to 100 | 100 to 5000 | CN1CCC(NC(=O)N(Cc2ccc3c(c2)OCO3)Cc2ccn(C)n2)CC1 [Compound I-026] |  |  |
| < 10 | 10 to 100 | CC(C)COc1ccc(CN(Cc2cccs2)C(=O)NC2CCN(C)CC2)cc1 [Compound I-034] |  |  |
| < 10 | 10 to 100 | CC(C)COc1ccc(CN(Cc2ccc(F)cn2)C(=O)OC2CCN(C)CC2)cc1 [Compound I-093] |  |  |
| 100 to 5000 | 100 to 5000 | CC(C)COc1ccc(CN(Cc2ccn(C)n2)C(=O)N[C@@H]2CCNCC2(F)F)cc1 [Compound I-027] |  |  |
